Source: ChEMBL document CHEMBL4251595, “Green approach for the synthesis of thiophenyl pyrazoles and isoxazoles by adopting 1,3-dipolar cycloaddition methodology and their antimicrobial activity” (2018)
The source made the active and inactive calls. The rule behind the calls is not given here.

Experiments:
Format in all cases: functional
Bacillus subtilis [1] = test: Antimicrobial activity against Bacillus subtilis assessed as zone of inhibition at 50 ug/well after 24 hrs by agar well diffusion method; details: for zone of inhibition at 50 µg/disc: read-out: DIZ
Bacillus subtilis [2] = test: Antimicrobial activity against Bacillus subtilis assessed as zone of inhibition at 100 ug/well after 24 hrs by agar well diffusion method; details: for zone of inhibition at 100 µg/disc: read-out: DIZ
Penicillium chrysogenum [3] = test: Antifungal activity against Penicillium chrysogenum assessed as zone of inhibition at 100 ug/well after 48 hrs by agar well diffusion method; details: for zone of inhibition at 100 µg/disc: read-out: DIZ
Staphylococcus aureus [4] = test: Antimicrobial activity against Staphylococcus aureus assessed as zone of inhibition at 75 ug/well after 24 hrs by agar well diffusion method; details: for zone of inhibition at 75 µg/disc: read-out: DIZ
Staphylococcus aureus [5] = test: Antimicrobial activity against Staphylococcus aureus assessed as zone of inhibition at 50 ug/well after 24 hrs by agar well diffusion method; details: for zone of inhibition at 50 µg/disc: read-out: DIZ
Penicillium chrysogenum [6] = test: Antifungal activity against Penicillium chrysogenum assessed as zone of inhibition at 75 ug/well after 48 hrs by agar well diffusion method; details: for zone of inhibition at 75 µg/disc: read-out: DIZ
Pseudomonas aeruginosa [7] = test: Antimicrobial activity against Pseudomonas aeruginosa assessed as zone of inhibition at 100 ug/well after 24 hrs by agar well diffusion method; details: for zone of inhibition at 100 µg/disc: read-out: DIZ
Aspergillus niger [8] = test: Antifungal activity against Aspergillus niger assessed as zone of inhibition at 100 ug/well after 48 hrs by agar well diffusion method; details: for zone of inhibition at 100 µg/disc: read-out: DIZ
Pseudomonas aeruginosa [9] = test: Antimicrobial activity against Pseudomonas aeruginosa assessed as zone of inhibition at 50 ug/well after 24 hrs by agar well diffusion method; details: for zone of inhibition at 50 µg/disc: read-out: DIZ
Pseudomonas aeruginosa [10] = test: Antimicrobial activity against Pseudomonas aeruginosa assessed as zone of inhibition at 75 ug/well after 24 hrs by agar well diffusion method; details: for zone of inhibition at 75 µg/disc: read-out: DIZ
Klebsiella pneumoniae [11] = test: Antimicrobial activity against Klebsiella pneumoniae assessed as zone of inhibition at 100 ug/well after 24 hrs by agar well diffusion method; details: for zone of inhibition at 100 µg/disc: read-out: DIZ
Klebsiella pneumoniae [12] = test: Antimicrobial activity against Klebsiella pneumoniae assessed as zone of inhibition at 50 ug/well after 24 hrs by agar well diffusion method; details: for zone of inhibition at 50 µg/disc: read-out: DIZ
Klebsiella pneumoniae [13] = test: Antimicrobial activity against Klebsiella pneumoniae assessed as zone of inhibition at 75 ug/well after 24 hrs by agar well diffusion method; details: for zone of inhibition at 75 µg/disc: read-out: DIZ
Bacillus subtilis [14] = test: Antimicrobial activity against Bacillus subtilis assessed as zone of inhibition at 75 ug/well after 24 hrs by agar well diffusion method; details: for zone of inhibition at 75 µg/disc: read-out: DIZ
Penicillium chrysogenum [15] = test: Antifungal activity against Penicillium chrysogenum assessed as zone of inhibition at 50 ug/well after 48 hrs by agar well diffusion method; details: for zone of inhibition at 50 µg/disc: read-out: DIZ
Aspergillus niger [16] = test: Antifungal activity against Aspergillus niger assessed as zone of inhibition at 50 ug/well after 48 hrs by agar well diffusion method; details: for zone of inhibition at 50 µg/disc: read-out: DIZ
Staphylococcus aureus [17] = test: Antimicrobial activity against Staphylococcus aureus assessed as zone of inhibition at 100 ug/well after 24 hrs by agar well diffusion method; details: for zone of inhibition at 100 µg/disc: read-out: DIZ
Aspergillus niger [18] = test: Antifungal activity against Aspergillus niger assessed as zone of inhibition at 75 ug/well after 48 hrs by agar well diffusion method; details: for zone of inhibition at 75 µg/disc: read-out: DIZ

SMILES | zone of inhibition at 50 µg/disc (Bacillus subtilis [1]) | zone of inhibition at 100 µg/disc (Bacillus subtilis [2]) | zone of inhibition at 100 µg/disc (Penicillium chrysogenum [3]) | zone of inhibition at 75 µg/disc (Staphylococcus aureus [4]) | zone of inhibition at 50 µg/disc (Staphylococcus aureus [5]) | zone of inhibition at 75 µg/disc (Penicillium chrysogenum [6]) | diameter of the inhibition zone (DIZ) (Pseudomonas aeruginosa [7]) | zone of inhibition at 100 µg/disc (Aspergillus niger [8]) | diameter of the inhibition zone (DIZ) (Pseudomonas aeruginosa [9]) | diameter of the inhibition zone (DIZ) (Pseudomonas aeruginosa [10]) | zone of inhibition at 100 µg/disc (Klebsiella pneumoniae [11]) | zone of inhibition at 50 µg/disc (Klebsiella pneumoniae [12]) | zone of inhibition at 75 µg/disc (Klebsiella pneumoniae [13]) | zone of inhibition at 75 µg/disc (Bacillus subtilis [14]) | diameter of the inhibition zone (DIZ) (Penicillium chrysogenum [15]) | diameter of the inhibition zone (DIZ) (Aspergillus niger [16]) | zone of inhibition at 100 µg/disc (Staphylococcus aureus [17]) | zone of inhibition at 75 µg/disc (Aspergillus niger [18]) | zone of inhibition at 100 µg/disc (Pseudomonas aeruginosa [7]) | zone of inhibition at 75 µg/disc (Pseudomonas aeruginosa [10]) | other results
O=C(NS(=O)(=O)C1C(c2ccccc2)=NOC1c1ccc([N+](=O)[O-])cc1)c1cccs1 (stereo not drawn) | 15 mm | 20 mm | 10 mm | 12 mm | 11 mm | 8 mm | inactive | 13 mm | inactive | inactive | 11 mm | 9 mm | 10 mm | 16 mm | inactive | inactive | 15 mm | 10 mm |  |  | 
O=C(NS(=O)(=O)/C=C/c1ccccc1)c1ccc(Cl)s1 | 22 mm | 27 mm | 17 mm | 19 mm | 16 mm | 13 mm |  | 21 mm |  |  | 25 mm | 19 mm | 22 mm | 24 mm |  |  | 21 mm | 17 mm | 17 mm | 14 mm | zone of inhibition at 50 µg/disc (Pseudomonas aeruginosa [9]): 12 mm; zone of inhibition at 50 µg/disc (Penicillium chrysogenum [15]): 10 mm; zone of inhibition at 50 µg/disc (Aspergillus niger [16]): 15 mm
Cc1ccc(/C=C/S(=O)(=O)NC(=O)c2cccs2)cc1 | 13 mm | 18 mm | 10 mm | 11 mm |  |  |  | 12 mm | inactive |  | 16 mm | 12 mm | 13 mm | 15 mm | inactive | inactive | 12 mm | 8 mm | 9 mm | 7 mm | diameter of the inhibition zone (DIZ) (Staphylococcus aureus [5]): inactive; diameter of the inhibition zone (DIZ) (Penicillium chrysogenum [6]): inactive
O=C(NS(=O)(=O)C1C(c2ccccc2)=NOC1c1ccc([N+](=O)[O-])cc1)c1ccc(Cl)s1 (stereo not drawn) | 16 mm | 21 mm | 12 mm | 14 mm | 13 mm | 9 mm | inactive | 15 mm | inactive | inactive | 13 mm | 9 mm | 11 mm | 19 mm | inactive |  | 16 mm | 12 mm |  |  | zone of inhibition at 50 µg/disc (Aspergillus niger [16]): 9 mm
O=C(NS(=O)(=O)C1C(c2ccccc2)=NN(c2ccccc2)C1c1ccc([N+](=O)[O-])cc1)c1cccs1 (stereo not drawn) | 12 mm | 17 mm | 12 mm |  |  | 9 mm | inactive | 15 mm | inactive | inactive | 13 mm | 9 mm | 11 mm | 14 mm | inactive | inactive | 9 mm | 12 mm |  |  | diameter of the inhibition zone (DIZ) (Staphylococcus aureus [4]): inactive; diameter of the inhibition zone (DIZ) (Staphylococcus aureus [5]): inactive
O=C(NS(=O)(=O)c1c(-c2ccccc2)noc1-c1ccccc1)c1cccs1 | 24 mm | 29 mm | 19 mm | 21 mm | 17 mm | 16 mm |  | 23 mm |  |  | 26 mm | 21 mm | 24 mm | 26 mm |  |  | 23 mm | 20 mm | 15 mm | 13 mm | zone of inhibition at 50 µg/disc (Pseudomonas aeruginosa [9]): 11 mm; zone of inhibition at 50 µg/disc (Penicillium chrysogenum [15]): 14 mm; zone of inhibition at 50 µg/disc (Aspergillus niger [16]): 18 mm
Cc1ccc(C2ON=C(c3ccccc3)C2S(=O)(=O)NC(=O)c2ccc(Cl)s2)cc1 (stereo not drawn) |  |  |  |  |  |  | inactive |  | inactive | inactive |  |  |  |  | inactive | inactive |  |  |  |  | diameter of the inhibition zone (DIZ) (Bacillus subtilis [1]): inactive; diameter of the inhibition zone (DIZ) (Bacillus subtilis [2]): inactive; diameter of the inhibition zone (DIZ) (Penicillium chrysogenum [3]): inactive; diameter of the inhibition zone (DIZ) (Staphylococcus aureus [4]): inactive; diameter of the inhibition zone (DIZ) (Staphylococcus aureus [5]): inactive; diameter of the inhibition zone (DIZ) (Penicillium chrysogenum [6]): inactive; diameter of the inhibition zone (DIZ) (Aspergillus niger [8]): inactive; diameter of the inhibition zone (DIZ) (Klebsiella pneumoniae [11]): inactive; diameter of the inhibition zone (DIZ) (Klebsiella pneumoniae [12]): inactive; diameter of the inhibition zone (DIZ) (Klebsiella pneumoniae [13]): inactive; diameter of the inhibition zone (DIZ) (Bacillus subtilis [14]): inactive; diameter of the inhibition zone (DIZ) (Staphylococcus aureus [17]): inactive; diameter of the inhibition zone (DIZ) (Aspergillus niger [18]): inactive
Cc1ccc(C2C(S(=O)(=O)NC(=O)c3cccs3)C(c3ccccc3)=NN2c2ccccc2)cc1 (stereo not drawn) |  |  |  |  |  |  | inactive | 10 mm | inactive | inactive |  |  |  |  | inactive | inactive |  | 8 mm |  |  | diameter of the inhibition zone (DIZ) (Bacillus subtilis [1]): inactive; diameter of the inhibition zone (DIZ) (Bacillus subtilis [2]): inactive; diameter of the inhibition zone (DIZ) (Penicillium chrysogenum [3]): inactive; diameter of the inhibition zone (DIZ) (Staphylococcus aureus [4]): inactive; diameter of the inhibition zone (DIZ) (Staphylococcus aureus [5]): inactive; diameter of the inhibition zone (DIZ) (Penicillium chrysogenum [6]): inactive; diameter of the inhibition zone (DIZ) (Klebsiella pneumoniae [11]): inactive; diameter of the inhibition zone (DIZ) (Klebsiella pneumoniae [12]): inactive; diameter of the inhibition zone (DIZ) (Klebsiella pneumoniae [13]): inactive; diameter of the inhibition zone (DIZ) (Bacillus subtilis [14]): inactive; diameter of the inhibition zone (DIZ) (Staphylococcus aureus [17]): inactive
O=C(NS(=O)(=O)c1c(-c2ccccc2)nn(-c2ccccc2)c1-c1ccccc1)c1cccs1 | 22 mm | 26 mm | 16 mm | 18 mm | 15 mm | 14 mm |  | 20 mm |  |  | 23 mm | 18 mm | 20 mm | 23 mm |  |  | 20 mm | 16 mm | 12 mm | 10 mm | zone of inhibition at 50 µg/disc (Pseudomonas aeruginosa [9]): 9 mm; zone of inhibition at 50 µg/disc (Penicillium chrysogenum [15]): 12 mm; zone of inhibition at 50 µg/disc (Aspergillus niger [16]): 15 mm
Cc1ccc(-c2onc(-c3ccccc3)c2S(=O)(=O)NC(=O)c2ccc(Cl)s2)cc1 | 21 mm | 25 mm | 18 mm | 17 mm | 13 mm | 16 mm |  | 26 mm |  |  | 24 mm | 17 mm | 22 mm | 23 mm |  |  | 19 mm | 21 mm | 14 mm | 10 mm | zone of inhibition at 50 µg/disc (Pseudomonas aeruginosa [9]): 8 mm; zone of inhibition at 50 µg/disc (Penicillium chrysogenum [15]): 14 mm; zone of inhibition at 50 µg/disc (Aspergillus niger [16]): 18 mm
Cc1ccc(C2ON=C(c3ccccc3)C2S(=O)(=O)NC(=O)c2cccs2)cc1 (stereo not drawn) |  |  |  |  |  |  | inactive |  | inactive | inactive |  |  |  |  | inactive | inactive |  |  |  |  | diameter of the inhibition zone (DIZ) (Bacillus subtilis [1]): inactive; diameter of the inhibition zone (DIZ) (Bacillus subtilis [2]): inactive; diameter of the inhibition zone (DIZ) (Penicillium chrysogenum [3]): inactive; diameter of the inhibition zone (DIZ) (Staphylococcus aureus [4]): inactive; diameter of the inhibition zone (DIZ) (Staphylococcus aureus [5]): inactive; diameter of the inhibition zone (DIZ) (Penicillium chrysogenum [6]): inactive; diameter of the inhibition zone (DIZ) (Aspergillus niger [8]): inactive; diameter of the inhibition zone (DIZ) (Klebsiella pneumoniae [11]): inactive; diameter of the inhibition zone (DIZ) (Klebsiella pneumoniae [12]): inactive; diameter of the inhibition zone (DIZ) (Klebsiella pneumoniae [13]): inactive; diameter of the inhibition zone (DIZ) (Bacillus subtilis [14]): inactive; diameter of the inhibition zone (DIZ) (Staphylococcus aureus [17]): inactive; diameter of the inhibition zone (DIZ) (Aspergillus niger [18]): inactive
